The values that follow come from PubChem BioAssay (NCI).

Common to all, as to test: inhibition of tumour cell growth, NCI panel, 48 h
Assay [1] concerns 786-0 renal.
Assay [2] relates to A498 renal.
Assay [3] deals with A549 NSCLC.
In assay [4] the test system is COLO 205 colon.
Assay [5] concerns DU-145 prostate.
For assay [6], the system named is EKVX NSCLC.
Assay [7] concerns HT29 colon.
In assay [8] the test system is IGROV1 ovarian.
For assay [9], the system named is MOLT-4 leukemia.
Assay [10] deals with NCI-H23 lung.
The test system of assay [11] is NCI-H460 lung.
In assay [12] the test system is OVCAR-3 ovarian.
Assay [13] relates to OVCAR-5 ovarian.
Assay [14] concerns OVCAR-8 ovarian.
Assay [15] concerns SK-MEL-2 melanoma.
Assay [16] deals with SNB-75 CNS.
The test system of assay [17] is SW-620 colon.
Assay [18] has as its system UACC-257 melanoma.
Assay [19] relates to HOP-92 NSCLC.
In assay [20] the test system is NCI-H226 lung.

Structures are written as SMILES.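 Five concentrations, 48 hours, 96-well plates. At the TGI there is no net growth.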 A value given as a limit tells only on which side of the number the result lay.

Take `Cc1ccc(N(C(=O)Nc2ccc(F)c(Cl)c2)C2=NCC(C)S2)cc1` (stereo unspecified): the TGI in [1], in [2], in assay [3], in assay [4], in [5] and in [6] was greater than 100 µM throughout. The TGI in [7], in [8], in assay [9], in [10], in [11] and in [12] was greater than 100 µM each time. Moreover, the TGI in assay [13], in assay [14], in [15], in assay [16], in assay [17] and in assay [18] was greater than 100 µM throughout.

As for `CC(C)=c1sc(=C(C)C)c2c1=NC(C)(C)N=2`, the TGI in assay [1], in [2], in [3], in assay [4], in assay [5] and in [6] was greater than 100 µM in each case. In addition, the TGI in [7], in assay [8], in assay [9], in [10], in assay [11] and in assay [12] was greater than 100 µM throughout. For the same molecule, the TGI in [13], in assay [14], in assay [15], in assay [17] and in assay [18] was greater than 100 µM throughout.

On to `CC1OC(OC2C(OC(=O)[C@@H]3CC(C)(C)C[C@@H]4C5=CC[C@@H]6[C@@]7(C)C[C@H](O)[C@H](OC8OC(CO)C(O)C(O)C8O)[C@@](C)(CO)C7[C@H](O)C[C@@]6(C)[C@]5(C)C[C@@H](O)[C@H]43)OCC(O)C2O)C(O)C(O)C1O` (stereo partly specified), for which the TGI in assay [1], in assay [4], in assay [5], in assay [6], in assay [19] and in [7] was greater than 15 µM in each case. The TGI in assay [8], in assay [9], in assay [20], in [10], in assay [11] and in [12] was greater than 15 µM throughout. The TGI in [13], in assay [14], in assay [15], in [16], in [17] and in [18] was greater than 15 µM throughout.

Turning to `Oc1cc(-c2ccc(Cl)cc2)cn2c1nc1ccccc12`, the TGI in assay [1], in assay [2], in assay [4], in assay [5], in assay [6] and in assay [19] was greater than 100 µM throughout. Further, the TGI in assay [7], in assay [8], in assay [20], in assay [10], in assay [11] and in assay [12] was greater than 100 µM in each case. The TGI in assay [14], in assay [16], in assay [17] and in assay [18] was greater than 100 µM each time.

As to `Cc1ccc(C2=C(C#N)C(=O)N3CCN=C3S2)cc1`, the TGI in assay [1], in assay [3], in assay [4], in assay [5], in assay [6] and in [19] was greater than 100 µM throughout. Besides, the TGI in assay [7], in [8], in assay [9], in [20], in assay [10] and in assay [11] was greater than 100 µM in each case. Besides, the TGI in [12], in [13], in assay [14], in [15], in [16] and in assay [17] was greater than 100 µM each time. In addition, the TGI in assay [18] is greater than 100 µM.

For the molecule `CN(N)/N=N/c1nc[nH]c1[N+](=O)[O-]`, the TGI in assay [1] was 55.2 µM; in assay [2] it was greater than 100 µM; in assay [3] it was greater than 100 µM; in [4], greater than 100 µM; in assay [5], greater than 100 µM; in [6] it was greater than 100 µM. For the same molecule, the TGI is greater than 100 µM in assay [7]; greater than 100 µM in assay [8]; 54.6 µM in assay [9]; greater than 100 µM in assay [20]; greater than 100 µM in assay [10]; greater than 100 µM in assay [11]. Also, the TGI in [12], in [13], in assay [14], in assay [15], in assay [16] and in assay [17] was greater than 100 µM in each case. This molecule displayed a TGI in assay [18] greater than 100 µM.

With `CC(C)(C)OC(=O)N1CCC2(C)CC(=O)CC=C12` (stereo unspecified), the TGI in assay [1], in assay [3], in [4], in assay [5], in [6] and in [19] was greater than 100 µM throughout. The TGI in assay [7], in assay [8], in assay [9], in [20], in assay [10] and in [11] was greater than 100 µM throughout. Also, the TGI in assay [12], in assay [13], in [14], in assay [15], in assay [16] and in [17] was greater than 100 µM in each case. The molecule also returned a TGI in [18] greater than 100 µM.

Regarding `COc1ccc2c(c1)-c1[nH]c3ccc(OC)cc3c1CC2`, the TGI was 34 µM in [1]; 30.2 µM in [3]; 37.4 µM in assay [4]; 32.9 µM in [5]; 20.8 µM in [6]; 36.2 µM in assay [19]. Moreover, the TGI in assay [7] came to 24.9 µM; in assay [8] it was 26.8 µM; in [9], 54.4 µM; in [20], 24.3 µM; in assay [10] it was 25.8 µM; in assay [11] it was 32.9 µM. For the same molecule, the TGI turned out to be 32.9 µM in [12]; 28.6 µM in assay [13]; 27.3 µM in assay [14]; 28.4 µM in assay [15]; 26.9 µM in assay [16]; 49.4 µM in [17]. In addition, the TGI in assay [18] was 32.4 µM.

With `Cc1ccc(C(=O)Nc2ccc(CP(=O)(O)O)cc2CP(=O)(O)O)cc1NC(=O)c1cccc(NC(=O)Nc2cccc(C(=O)Nc3cc(C(=O)Nc4ccc(CP(=O)(O)O)cc4CP(=O)(O)O)ccc3C)c2)c1`, the TGI in [1], in assay [2], in assay [3], in assay [4], in [5] and in assay [6] was greater than 100 µM throughout. For the same molecule, the TGI in [7], in [8], in assay [9], in assay [20], in assay [10] and in assay [11] was greater than 100 µM throughout. For the same molecule, the TGI in assay [12], in assay [13], in assay [14], in assay [15], in assay [16] and in assay [17] was greater than 100 µM throughout. In addition, the TGI in assay [18] is greater than 100 µM.

For the molecule `COc1c(Br)cc(/C=C(\C#N)c2cccnc2)cc1Br`, the TGI in assay [1] is greater than 100 µM; in assay [3], greater than 100 µM; in assay [4], greater than 100 µM; in assay [5], greater than 100 µM; in assay [6] it was greater than 100 µM; in assay [19] it was 75 µM. In addition, the TGI in [7], in [8], in assay [9], in assay [20], in [10] and in assay [11] was greater than 100 µM in each case. In addition, the TGI in assay [12], in assay [13], in assay [14], in [15], in [16] and in [17] was greater than 100 µM in each case. In assay [18], this molecule yielded a TGI greater than 100 µM.

Turning to `c1ccc2c(c1)cc1c3[nH]c4ccccc4c3ccn21`, the TGI was greater than 10 µM in assay [1]; greater than 10 µM in assay [3]; 3.41 µM in assay [4]; greater than 10 µM in assay [5]; greater than 10 µM in assay [6]; greater than 10 µM in assay [19]. Also, the TGI in [7], in assay [8], in [9], in [20], in assay [10] and in assay [11] was greater than 10 µM throughout. The TGI in assay [12], in assay [13], in [14], in assay [15], in assay [16] and in assay [17] was greater than 10 µM throughout. Also, the TGI in [18] was greater than 10 µM.

For the molecule `COCn1cnc2c(=O)n(-c3ccc(OC)cc3)c(=S)n(-c3ccc(OC)cc3)c21`, the TGI in [1], in [2], in [3], in assay [4], in assay [5] and in assay [6] was greater than 100 µM in each case. Further, the TGI in [7], in assay [8], in [9], in assay [20], in assay [10] and in assay [11] was greater than 100 µM in each case. In addition, the TGI in [12], in assay [13], in assay [14], in [15], in assay [16] and in [17] was greater than 100 µM in each case. Further, the TGI in assay [18] was greater than 100 µM.

As for `COc1cccc(-c2nc3ccccc3c(=O)[nH]2)c1OC`, the TGI in [1], in [2], in assay [3], in assay [4], in assay [5] and in assay [6] was greater than 100 µM each time. Besides, the TGI in assay [7], in [8], in assay [9], in assay [20], in assay [10] and in assay [11] was greater than 100 µM each time. Moreover, the TGI in assay [12], in assay [13], in [14], in assay [15], in assay [16] and in [17] was greater than 100 µM in each case. For the same molecule, the TGI in [18] was greater than 100 µM.

For the molecule `COC(=O)C1(C(=O)OC)Cc2ccc(C)cc2C2=C1C(=O)c1ccccc1C2=O`, the TGI is 68.9 µM in [1]; greater than 100 µM in assay [3]; 36.9 µM in assay [5]; 29.4 µM in [6]; 38.7 µM in assay [19]; 62.2 µM in assay [7]. The TGI in [8] is 44.3 µM; in [9], 31.7 µM; in [20], greater than 100 µM; in [10], 46.1 µM; in assay [11], greater than 100 µM; in [12], 14.9 µM. Besides, the TGI is 35.5 µM in assay [13]; 34.6 µM in [14]; 30.7 µM in assay [15]; 32.2 µM in assay [16]; 45.8 µM in assay [17]; 31.2 µM in assay [18].

For `CC(C)(C)c1ccc(-n2c3nc(=O)n(-c4ccccc4CO)c(=O)c-3cc3ccccc32)cc1`, the TGI in assay [1], in [2], in assay [3], in assay [4], in [5] and in [6] was greater than 100 µM in each case. Further, the TGI in assay [19] was 97.7 µM; in assay [7] it was 86.8 µM; in assay [8], greater than 100 µM; in assay [9], 57.2 µM; in assay [20], greater than 100 µM; in assay [10], greater than 100 µM. Moreover, the TGI in [11], in [13], in assay [14], in assay [16], in assay [17] and in [18] was greater than 100 µM in each case.
